# Test results published in ChEMBL document CHEMBL5321290, “Discovery of the Diphenyl 6-Oxo-1,6-dihydropyridazine-3-carboxylate/carboxamide Analogue J27 for the Treatment of Acute Lung Injury and Sepsis by Targeting JNK2 and Inhibiting the JNK2-NF-κB/MAPK Pathway” (J Med Chem, 2023).
# Activity calls are given as the source filed them. The rule behind the calls is not given here.
# What was measured:
# J774.A1 [1] = assay: Antiinflammatory activity against mouse J774A.1 cells assessed as inhibition of LPS-stimulated TNFalpha release measured at 10 uM after 30 mins by ELISA relative to control; type: functional; conditions: for inhibition at 10 µM: J774.A1, 0.5 h
# J774.A1 [2] = assay: Antiinflammatory activity against mouse J774A.1 cells assessed as inhibition of LPS-stimulated IL6 release measured at 10 uM after 30 mins by ELISA relative to control; type: functional; conditions: for inhibition at 10 µM: J774.A1, 0.5 h
SMILES,inhibition at 10 µM (J774.A1 [1]) [%],inhibition (J774.A1 [2]),inhibition at 10 µM (J774.A1 [2]) [%],inhibition (J774.A1 [1])
COc1ccc(-n2nc(C(=O)Nc3ccc(Oc4ccnc5cc(OC)c(OC)cc45)cc3)c(C)cc2=O)cc1,12.1,inactive,,
COc1cc2ncnc(Nc3ccc(F)c(OC(=O)c4nn(-c5ccccc5)c(=O)cc4C)c3)c2cc1OC,49.6,,32.1,
COc1cc2ncnc(Oc3cccc(NC(=O)c4nn(-c5ccccc5)c(=O)cc4C)c3)c2cc1OC,,inactive,,inactive
COc1cc2nccc(Oc3ccc(NC(=O)c4nn(-c5ccc(F)cc5)c(=O)cc4C)cc3)c2cc1OC,,,5.11,inactive
COc1cc2ncnc(Nc3ccc(C)c(OC(=O)c4nn(-c5ccccc5)c(=O)cc4C)c3)c2cc1OC,,,20.7,inactive
COc1ccc(-n2nc(C(=O)Nc3cccc(Oc4ncnc5cc(OC)c(OC)cc45)c3)c(C)cc2=O)cc1,,,7.64,inactive
COc1ccc(-n2nc(C(=O)Oc3cc(Nc4ncnc5cc(OC)c(OC)cc45)ccc3F)c(C)cc2=O)cc1,,,31.9,inactive
COc1cc2ncnc(Oc3cccc(NC(=O)c4nn(-c5ccc(C)cc5)c(=O)cc4C)c3)c2cc1OC,,,47.3,inactive
CCc1ccccc1-n1nc(C(=O)Nc2cccc(Oc3ccnc4cc(OC)c(OC)cc34)c2)c(C)cc1=O,63.4,,25.1,
COc1cc2ncnc(Oc3ccc(NC(=O)c4nn(-c5ccc(C)cc5)c(=O)cc4C)cc3)c2cc1OC,64,,63,
COc1cc2nccc(Oc3ccc(NC(=O)c4nn(-c5ccccc5)c(=O)cc4C)cc3)c2cc1OC,52,inactive,,
CCc1ccccc1-n1nc(C(=O)Nc2ccc(Oc3ncnc4cc(OC)c(OC)cc34)cc2)c(C)cc1=O,58,,18.4,
COc1ccc(-n2nc(C(=O)Nc3cccc(Oc4ccnc5cc(OC)c(OC)cc45)c3)c(C)cc2=O)cc1,,inactive,,inactive
CCc1ccccc1-n1nc(C(=O)Nc2cccc(Oc3ncnc4cc(OC)c(OC)cc34)c2)c(C)cc1=O,,inactive,,inactive
COc1cc2ncnc(Nc3ccc(OC(=O)c4nn(-c5ccccc5)c(=O)cc4C)c(C)c3)c2cc1OC,,,23.9,inactive
COc1cc2ncnc(Nc3ccc(F)c(OC(=O)c4nn(-c5ccc(C)cc5)c(=O)cc4C)c3)c2cc1OC,34.9,,48,
COc1cc2nccc(Oc3cccc(NC(=O)c4nn(-c5ccc(C)cc5)c(=O)cc4C)c3)c2cc1OC,,inactive,,inactive
COc1cc2ncnc(Oc3ccc(NC(=O)c4nn(-c5ccccc5)c(=O)cc4C)cc3)c2cc1OC,46.9,,54.8,
COc1cc2nccc(Oc3cccc(NC(=O)c4nn(-c5ccccc5)c(=O)cc4C)c3)c2cc1OC,0.35,inactive,,
CCc1ccccc1-n1nc(C(=O)Nc2ccc(Oc3ccnc4cc(OC)c(OC)cc34)cc2)c(C)cc1=O,27.9,,55.1,
COc1cc2ncnc(Oc3cccc(NC(=O)c4nn(-c5ccc(F)cc5)c(=O)cc4C)c3)c2cc1OC,,,16.1,inactive
COc1cc2ncnc(Oc3ccc(NC(=O)c4nn(-c5ccc(F)cc5)c(=O)cc4C)cc3)c2cc1OC,70.1,,20.6,
COc1cc2nccc(Oc3cccc(NC(=O)c4nn(-c5ccc(F)cc5)c(=O)cc4C)c3)c2cc1OC,20.6,,38,
COc1ccc(-n2nc(C(=O)Nc3ccc(Oc4ncnc5cc(OC)c(OC)cc45)cc3)c(C)cc2=O)cc1,57.5,inactive,,
CCc1ccc(-n2nc(C(=O)Nc3ccc(Oc4ccnc5cc(OC)c(OC)cc45)cc3)c(C)cc2=O)cc1,61.9,,34.9,
CCc1ccc(-n2nc(C(=O)Oc3cc(Nc4ncnc5cc(OC)c(OC)cc45)ccc3F)c(C)cc2=O)cc1,21.8,,38.3,
CCc1ccccc1-n1nc(C(=O)Oc2cc(Nc3ncnc4cc(OC)c(OC)cc34)ccc2F)c(C)cc1=O,,inactive,,inactive
CCc1ccc(-n2nc(C(=O)Nc3cccc(Oc4ncnc5cc(OC)c(OC)cc45)c3)c(C)cc2=O)cc1,,,39,inactive
COc1cc2ncnc(Nc3ccc(F)c(OC(=O)c4nn(-c5ccc(F)cc5)c(=O)cc4C)c3)c2cc1OC,38.8,,46.5,
